Reference: ChEMBL document CHEMBL1201862, “PubChem BioAssay data set” (2004)
Active and inactive are the calls of the source.

Assays:
[1] = target: Mothers against decapentaplegic homolog 3 (Homo sapiens, UniProt P84022); assay: inhibitors of SMAD-driven TGF-beta signaling – dose response (AID 715); assay type: functional
BJ [2] = assay: growth inhibition of engineered Ras-driven BJ cells – cell-based, alamar blue fluorescence, cherrypicked samples, dose response (AID 2631); assay type: functional; details: Homo sapiens;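 note: confirmatory dose-response assay in RAS-dependent BJ fibroblasts engineered with TERT, LT and ST, with cytotoxicity read by fluorescence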
INS1 = assay: INS-1E survival protection against cytokine death – cell-based, luminescence, retest, dose response (AID 449756); assay type: functional; details: Rattus norvegicus;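 note: cell death triggered by IL-1 beta plus TNF-alpha plus IFN-gamma mixture; protective hits raise ATP signal compared with cytokine alone wells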
[3] = target: Sphingosine 1-phosphate receptor 1 (Homo sapiens, UniProt P21453); assay type: functional;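 note: Tango beta-arrestin reporter U2OS cells stimulated with S1P near its EC80; inhibitor potency meaning antagonism of receptor activation by the natural agonist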
BJ [4] = assay: cells; assay type: functional, cell-based; details: Homo sapiens
Mucolipin-3 = target: T1, Mucolipin-3 (Homo sapiens, UniProt Q8TDD5); assay: Fluorescence counterscreen assay for […] agonists: dose response cell-based high-throughput screening assay to identify agonists of the transient receptor potential channel ML3 (TRPML3). [Related pubchem assays: 1424, 1448 ]; assay type: functional
T1 sequence (Q8TDD5 whole entry): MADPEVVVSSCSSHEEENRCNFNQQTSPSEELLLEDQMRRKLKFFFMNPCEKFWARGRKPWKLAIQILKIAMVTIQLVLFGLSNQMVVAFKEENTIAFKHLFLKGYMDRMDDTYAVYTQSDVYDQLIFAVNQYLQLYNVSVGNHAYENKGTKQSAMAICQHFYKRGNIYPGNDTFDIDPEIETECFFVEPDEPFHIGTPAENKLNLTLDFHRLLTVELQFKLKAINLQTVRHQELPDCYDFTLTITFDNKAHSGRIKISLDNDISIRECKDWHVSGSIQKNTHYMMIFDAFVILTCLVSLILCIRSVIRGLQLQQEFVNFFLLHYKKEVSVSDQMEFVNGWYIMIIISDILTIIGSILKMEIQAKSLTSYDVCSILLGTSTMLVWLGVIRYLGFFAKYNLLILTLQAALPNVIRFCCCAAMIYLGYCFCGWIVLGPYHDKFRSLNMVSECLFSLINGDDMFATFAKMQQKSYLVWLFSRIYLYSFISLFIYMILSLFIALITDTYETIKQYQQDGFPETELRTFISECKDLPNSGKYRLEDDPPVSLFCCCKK

Cytochrome P450 2D6 = Cytochrome P450 2D6 (Homo sapiens, UniProt P10635);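 note: CYP2D6 member of a cytochrome P450 panel assay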
[5] = HEK-293T viability loss after treatment – luminescence, T-cell screen hits, cytotoxicity control for TCR NF-kB inhibitor project, dose response (AID 489026); assay type: functional, cell-based;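 note: cells exposed to compound about 14 hours before the viability readout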
[6] = target: T2, Sphingosine 1-phosphate receptor 4 (Homo sapiens, UniProt O95977); assay: Late stage fluorescence dose response cell-based screening assay for antagonists of the Sphingosine 1-Phosphate Receptor 4 (S1P4). [Related pubchem assays: 1524 (Confirmation screen (S1P4 antagonists).), 1510 (Primary screen (S1P4 antagonists).), 1853 (Summary AID (S1P4 antagonists).), 1692 (Dose response screen (S1P4 antagonists).)]; assay type: functional
T2 sequence (O95977 whole entry): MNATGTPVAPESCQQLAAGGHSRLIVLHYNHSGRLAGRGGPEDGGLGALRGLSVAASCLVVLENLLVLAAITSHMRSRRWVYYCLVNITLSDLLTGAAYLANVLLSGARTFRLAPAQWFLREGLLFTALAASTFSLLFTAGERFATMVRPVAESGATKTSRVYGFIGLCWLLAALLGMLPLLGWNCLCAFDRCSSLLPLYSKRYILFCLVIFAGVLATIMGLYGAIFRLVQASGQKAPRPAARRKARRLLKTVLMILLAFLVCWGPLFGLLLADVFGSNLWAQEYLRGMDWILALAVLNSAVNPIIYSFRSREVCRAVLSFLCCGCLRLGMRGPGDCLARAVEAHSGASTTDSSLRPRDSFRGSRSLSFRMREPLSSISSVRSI

BJ [7] = assay: BJ-TERT-LT-ST fibroblast viability loss – cell-based, RAS-independent, luminescence, dose response (AID 1935); assay type: functional; details: Homo sapiens;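 note: BJ fibroblasts immortalized with TERT plus LT and ST oncogenes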
BJ [8] = assay: BJ-TERT fibroblast viability loss – cell-based, RAS-independent, luminescence, dose response (AID 1933); assay type: functional; details: Homo sapiens
[9] = target: T2, Sphingosine 1-phosphate receptor 4; assay: Fluorescence dose response cell-based high throughput screening assay for antagonists of the Sphingosine 1-Phosphate Receptor 4 (S1P4). [Related pubchem assays: 1524 (Confirmation in triplicates.), 1510 (Primary screen.)]; assay type: functional
[10] = DRD fibroblast viability loss – cell-based, non-viral oncogenic, luminescence, dose response (AID 1934); assay type: functional; details: Homo sapiens
Ion channel NompC = Ion channel NompC (Danio rerio, UniProt Q7T1G6); assay: Dose response cell-based high-throughput screening assay for agonists of the transient receptor potential channel N1 (TRPN1). [Related pubchem assays (depositor defined):AID1424, AID1448]; assay type: functional
[11] = Luminescence Cell-Based Dose Confirmation HTS to Identify Inhibitors of Polyadenylation.; assay type: functional
[12] = viability of uninfected HEp-2 cells – cell-based, HTS, cytotoxicity control for RSV inhibitor project, dose response (AID 2410); assay type: functional; details: human respiratory syncytial virus
Estrogen receptor = target: T3, Estrogen receptor (Homo sapiens, UniProt P03372);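 note: potency for inhibiting coactivator peptide recruitment to the receptor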
T3 sequence (P03372 whole entry): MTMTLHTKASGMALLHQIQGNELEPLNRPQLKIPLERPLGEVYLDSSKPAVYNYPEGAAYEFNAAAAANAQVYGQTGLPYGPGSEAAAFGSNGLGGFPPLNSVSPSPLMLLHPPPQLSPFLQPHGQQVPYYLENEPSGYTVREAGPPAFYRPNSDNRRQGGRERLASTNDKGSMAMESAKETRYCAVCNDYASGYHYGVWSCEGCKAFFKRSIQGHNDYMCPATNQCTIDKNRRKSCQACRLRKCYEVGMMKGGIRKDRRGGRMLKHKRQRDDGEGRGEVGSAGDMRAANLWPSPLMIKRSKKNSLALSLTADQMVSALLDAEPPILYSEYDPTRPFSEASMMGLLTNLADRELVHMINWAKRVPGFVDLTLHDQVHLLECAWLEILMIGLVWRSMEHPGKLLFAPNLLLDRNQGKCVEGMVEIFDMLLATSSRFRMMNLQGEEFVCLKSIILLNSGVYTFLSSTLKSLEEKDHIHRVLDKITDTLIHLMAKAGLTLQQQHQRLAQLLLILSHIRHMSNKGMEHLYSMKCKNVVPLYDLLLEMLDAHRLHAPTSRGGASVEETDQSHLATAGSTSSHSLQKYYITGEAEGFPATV

[13] = viability loss in HEK293T cells – cell-based, cherry-picks, cytotoxicity control for HIV Vif inhibitor project, dose response (AID 652208); assay type: functional
[14] = target: T4, Endoribonuclease toxin MazF (Escherichia coli K-12, UniProt P0AE70); assay: activation of MazEF endoribonuclease cleavage – biochemical, fluorescence, single-stranded RNA substrate, uHTS hits, dose response (AID 588481); assay type: functional
T4 sequence (P0AE70 whole entry): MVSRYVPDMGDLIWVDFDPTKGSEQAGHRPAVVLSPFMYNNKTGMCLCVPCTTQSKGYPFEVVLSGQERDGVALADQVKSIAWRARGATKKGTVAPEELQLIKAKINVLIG

[15] = target: T4, Endoribonuclease toxin MazF; assay: substrate-only fluorescence increase artefacts – biochemical, single-stranded RNase substrate, counter-screen for MazEF activator project, dose response (AID 588502); assay type: functional
[16] = target: T5, Mannose-6-phosphate isomerase (Homo sapiens, UniProt P34949); assay: MPI inhibition at elevated mannose 6-phosphate – biochemical, fluorescence intensity, high mannose 6-phosphate, primary screen (AID 1220)
T5 sequence (P34949 whole entry): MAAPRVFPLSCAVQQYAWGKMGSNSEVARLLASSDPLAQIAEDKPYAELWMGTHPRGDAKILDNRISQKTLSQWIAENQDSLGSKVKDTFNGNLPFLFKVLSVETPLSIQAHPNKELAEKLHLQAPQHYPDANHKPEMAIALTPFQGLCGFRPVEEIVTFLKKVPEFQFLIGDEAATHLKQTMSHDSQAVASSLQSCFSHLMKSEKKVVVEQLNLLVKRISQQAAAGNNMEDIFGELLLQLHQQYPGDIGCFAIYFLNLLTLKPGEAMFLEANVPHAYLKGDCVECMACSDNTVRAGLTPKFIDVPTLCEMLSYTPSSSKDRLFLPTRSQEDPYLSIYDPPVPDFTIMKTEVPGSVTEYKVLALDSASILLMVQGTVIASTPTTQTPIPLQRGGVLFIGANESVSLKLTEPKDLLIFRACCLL

[17] = target: T5, Mannose-6-phosphate isomerase; assay: MPI enzyme activity inhibition – biochemical, fluorescence intensity, coupled assay, primary screen (AID 1209)
Genome polyprotein = Genome polyprotein (dengue virus type 2, UniProt P29990); assay: flavivirus cap methylation enzyme inhibition – biochemical, confirmation dose response, primary screen (AID 588689); assay type: functional
Sequence of Genome polyprotein (P29990 2492-3391 limits assumed): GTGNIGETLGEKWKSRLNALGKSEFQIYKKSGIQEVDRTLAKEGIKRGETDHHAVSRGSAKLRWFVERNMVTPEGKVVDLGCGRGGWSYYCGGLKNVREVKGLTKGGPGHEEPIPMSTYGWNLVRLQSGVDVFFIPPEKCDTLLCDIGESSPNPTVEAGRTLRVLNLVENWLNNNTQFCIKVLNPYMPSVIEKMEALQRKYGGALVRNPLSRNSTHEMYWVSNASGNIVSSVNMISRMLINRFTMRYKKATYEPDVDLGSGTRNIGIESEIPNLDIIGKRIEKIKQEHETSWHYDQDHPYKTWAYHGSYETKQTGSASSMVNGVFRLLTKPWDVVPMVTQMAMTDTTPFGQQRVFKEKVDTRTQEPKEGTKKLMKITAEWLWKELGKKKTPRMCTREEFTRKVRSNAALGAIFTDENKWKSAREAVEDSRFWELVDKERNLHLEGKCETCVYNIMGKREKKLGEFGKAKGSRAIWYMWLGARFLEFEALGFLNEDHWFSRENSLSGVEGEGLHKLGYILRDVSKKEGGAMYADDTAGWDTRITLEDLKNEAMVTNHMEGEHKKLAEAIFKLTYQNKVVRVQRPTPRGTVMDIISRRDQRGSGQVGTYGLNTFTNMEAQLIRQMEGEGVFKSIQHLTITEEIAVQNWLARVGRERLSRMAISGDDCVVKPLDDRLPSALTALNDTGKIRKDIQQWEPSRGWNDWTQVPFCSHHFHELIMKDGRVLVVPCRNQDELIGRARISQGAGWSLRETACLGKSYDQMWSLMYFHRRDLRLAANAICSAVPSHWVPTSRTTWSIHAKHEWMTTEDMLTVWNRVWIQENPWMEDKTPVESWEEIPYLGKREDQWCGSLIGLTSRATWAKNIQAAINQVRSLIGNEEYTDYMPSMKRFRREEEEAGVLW

Sequence of Sphingosine 1-phosphate receptor 1 (P21453 whole entry): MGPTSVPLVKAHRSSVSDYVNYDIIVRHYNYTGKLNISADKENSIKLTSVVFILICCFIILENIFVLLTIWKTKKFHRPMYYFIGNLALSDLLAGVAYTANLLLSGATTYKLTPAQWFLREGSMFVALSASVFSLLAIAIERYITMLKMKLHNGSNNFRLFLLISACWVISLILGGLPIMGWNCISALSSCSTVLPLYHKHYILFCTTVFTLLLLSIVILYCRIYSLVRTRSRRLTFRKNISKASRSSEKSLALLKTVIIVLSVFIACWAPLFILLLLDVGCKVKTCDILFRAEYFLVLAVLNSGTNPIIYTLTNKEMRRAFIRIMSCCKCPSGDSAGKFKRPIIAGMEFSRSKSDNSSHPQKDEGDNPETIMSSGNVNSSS
Sequence of Cytochrome P450 2D6 (P10635 whole entry): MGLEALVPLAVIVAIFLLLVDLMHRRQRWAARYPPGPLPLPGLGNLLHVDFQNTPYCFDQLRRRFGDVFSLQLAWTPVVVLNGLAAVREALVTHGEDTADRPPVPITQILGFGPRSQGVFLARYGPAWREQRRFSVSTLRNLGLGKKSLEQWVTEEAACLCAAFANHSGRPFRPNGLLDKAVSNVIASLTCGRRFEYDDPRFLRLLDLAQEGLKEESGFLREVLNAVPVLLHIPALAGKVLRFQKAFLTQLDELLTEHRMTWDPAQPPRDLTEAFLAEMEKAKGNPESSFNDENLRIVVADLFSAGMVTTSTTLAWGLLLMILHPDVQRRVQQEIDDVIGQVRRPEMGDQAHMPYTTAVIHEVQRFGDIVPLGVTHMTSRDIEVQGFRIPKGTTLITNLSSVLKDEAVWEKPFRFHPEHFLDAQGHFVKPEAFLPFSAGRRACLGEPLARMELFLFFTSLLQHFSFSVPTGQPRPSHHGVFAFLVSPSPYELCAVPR
Sequence of Mothers against decapentaplegic homolog 3 (P84022 whole entry): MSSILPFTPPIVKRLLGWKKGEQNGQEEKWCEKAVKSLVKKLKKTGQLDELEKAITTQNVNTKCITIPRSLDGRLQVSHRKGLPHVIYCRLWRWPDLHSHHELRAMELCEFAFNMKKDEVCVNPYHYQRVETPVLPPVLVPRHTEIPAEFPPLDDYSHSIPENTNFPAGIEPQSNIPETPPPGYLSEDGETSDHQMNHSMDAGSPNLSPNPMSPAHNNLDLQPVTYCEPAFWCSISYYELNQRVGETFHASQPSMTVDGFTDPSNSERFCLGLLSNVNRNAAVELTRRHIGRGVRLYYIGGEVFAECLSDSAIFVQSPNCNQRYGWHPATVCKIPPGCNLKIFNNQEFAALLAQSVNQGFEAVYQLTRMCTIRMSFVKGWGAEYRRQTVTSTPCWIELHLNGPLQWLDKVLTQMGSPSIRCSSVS
Sequence of Ion channel NompC (Q7T1G6 whole entry): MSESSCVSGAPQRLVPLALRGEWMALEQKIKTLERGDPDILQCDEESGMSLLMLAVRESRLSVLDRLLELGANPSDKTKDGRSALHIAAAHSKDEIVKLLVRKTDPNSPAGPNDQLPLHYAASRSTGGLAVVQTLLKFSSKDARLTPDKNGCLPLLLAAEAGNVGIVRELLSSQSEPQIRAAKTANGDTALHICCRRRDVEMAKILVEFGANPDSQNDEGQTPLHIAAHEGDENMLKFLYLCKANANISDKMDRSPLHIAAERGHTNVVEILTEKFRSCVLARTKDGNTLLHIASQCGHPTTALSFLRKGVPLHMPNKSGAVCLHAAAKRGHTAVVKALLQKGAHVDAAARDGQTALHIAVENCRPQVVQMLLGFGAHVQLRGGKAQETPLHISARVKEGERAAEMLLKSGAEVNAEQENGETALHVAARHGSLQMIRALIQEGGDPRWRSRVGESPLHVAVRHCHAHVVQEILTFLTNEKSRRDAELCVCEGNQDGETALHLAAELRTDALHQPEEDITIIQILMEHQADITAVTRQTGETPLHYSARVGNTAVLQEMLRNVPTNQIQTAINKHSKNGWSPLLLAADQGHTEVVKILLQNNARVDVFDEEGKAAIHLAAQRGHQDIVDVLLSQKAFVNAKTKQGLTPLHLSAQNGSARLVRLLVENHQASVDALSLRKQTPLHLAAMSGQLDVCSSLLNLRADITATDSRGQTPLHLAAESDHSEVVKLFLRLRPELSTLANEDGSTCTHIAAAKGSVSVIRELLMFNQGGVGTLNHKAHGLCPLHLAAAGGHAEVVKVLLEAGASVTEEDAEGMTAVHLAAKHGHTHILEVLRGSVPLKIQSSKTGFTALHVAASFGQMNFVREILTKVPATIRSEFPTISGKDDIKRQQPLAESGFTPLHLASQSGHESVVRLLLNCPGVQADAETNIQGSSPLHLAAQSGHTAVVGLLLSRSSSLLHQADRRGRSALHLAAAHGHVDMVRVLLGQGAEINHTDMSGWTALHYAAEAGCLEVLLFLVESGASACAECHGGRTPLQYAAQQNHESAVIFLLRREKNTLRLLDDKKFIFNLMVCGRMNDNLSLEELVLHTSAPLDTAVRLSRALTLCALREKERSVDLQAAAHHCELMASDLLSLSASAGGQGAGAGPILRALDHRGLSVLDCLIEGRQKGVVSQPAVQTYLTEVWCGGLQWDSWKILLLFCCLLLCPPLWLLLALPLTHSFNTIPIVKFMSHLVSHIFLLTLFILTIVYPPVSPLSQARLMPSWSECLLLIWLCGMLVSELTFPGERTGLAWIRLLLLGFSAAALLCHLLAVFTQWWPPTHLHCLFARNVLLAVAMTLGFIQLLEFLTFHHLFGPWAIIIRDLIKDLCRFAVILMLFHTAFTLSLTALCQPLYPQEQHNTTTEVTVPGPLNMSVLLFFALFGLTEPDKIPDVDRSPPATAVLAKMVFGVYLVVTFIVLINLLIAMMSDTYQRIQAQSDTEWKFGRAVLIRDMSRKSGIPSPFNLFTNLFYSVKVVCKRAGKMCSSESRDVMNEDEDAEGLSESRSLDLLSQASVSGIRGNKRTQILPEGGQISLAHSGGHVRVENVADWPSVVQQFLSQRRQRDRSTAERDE

CCCc1cc(=O)[nH]c(N=C(NC(=O)C(C)N2C(=O)c3ccccc3C2=O)Nc2ccccc2)n1 (stereo not drawn)
IC50 [1]: 8.78 µM (active)

C=C1C(=O)C=C2CN(C(=O)c3ccccc3)[C@@](Cc3ccc(F)cc3)(C(=O)OC)[C@@H]12
EC50 (BJ [2]): < 0.104 µM (active) | AC50 (INS1): 1.58 µM (active) | IC50 [3]: 12 µM (not active) | EC50 (BJ [4]): 8.08 µM (inconclusive) | EC50 (Mucolipin-3): 1.12 µM (active) | AC50 (Cytochrome P450 2D6): 39.8 µM (inconclusive) | IC50 [5]: > 80 µM (inactive) | IC50 [6]: 3.7 µM (not active) | EC50 (BJ [7]): 0.554 µM (inconclusive) | EC50 (BJ [8]): 0.333 µM (active) | IC50 [9]: 0.473 µM (active) | EC50 [10]: 0.662 µM (active) | EC50 (Ion channel NompC): > 1.11 µM (inactive)

COc1ccc(-c2cccc(NC(=O)COc3ccc(Cl)cc3)c2)nn1
EC50 [11]: > 120 µM (not active)

O=C(Nc1ccc2oc(-c3ccc4ccccc4c3)nc2c1)c1cccs1
CC50 [12]: 18.6 µM (active) | IC50 (Estrogen receptor): 27.7 µM (active) | AC50 [13]: 31 µM (active) | EC50 [14]: > 99 µM (inactive) | EC50 [15]: > 99 µM (inactive)

Cc1cc(C(=O)N/N=C/c2ccc(O)c(O)c2O)c(C)n1-c1ccccc1
IC50 [16]: > 50 µM (not active) | IC50 [17]: > 50 µM (not active) | IC50 (Genome polyprotein): 41.9 µM (active)
